Experiments:
[1] = test system: Fusarium graminearum; assay type: in vivo; settings: 500 ppm of active ingredient; preventive spray on wheat; evaluated 5 days after inoculation
[2] = test system: Pyrenophora teres; assay: Pyrenophora teres in vitro cell test; assay type: cell-based; settings: 144 h, 20 ppm of active ingredient, liquid culture, 6 days incubation, read-out: efficacy (inhibition of fungal growth)
Procedure: (§1) a-12. Pyrenophora teres In Vitro Cell Test [table] Fungicides were solubilized in DMSO and the solution used to prepare the required range of concentrations. The final concentration of DMSO used in the assay was ≤1%. A spore suspension of P. teres was prepared and diluted to the desired spore density. Fungicides were evaluated for their ability to inhibit spore germination and mycelium growth in liquid culture assay. The compounds were added in the desired concentration to the culture medium with spores. After 6 days incubation, fungi-toxicity of compounds was determined by spectrometric measurement of mycelium growth. Inhibition of fungal growth was determined by comparing the absorbance values in wells containing the fungicides with the absorbance in control wells without fungicides.

[3] = test system: Alternaria brassicae; assay: In vivo preventive test on Alternaria brassicae (leaf spot on radish or cabbage); settings: 500 ppm of active ingredient; preventive spray on radish or cabbage; evaluated 3 to 4 days after inoculation
Procedure: (§2) a-1. In Vivo Preventive Test on Alternaria brassicae (Leaf Spot on Radish or Cabbage) [table] The active ingredients were made soluble and homogenized in a mixture of Dimethyl sulfoxide/Acetone//Tween® 80 and then diluted in water to the desired concentration. The young plants of radish or cabbage were treated by spraying the active ingredient prepared as described above. Control plants were treated only with an aqueous solution of Acetone/Dimethyl sulfoxide/Tween® 80. After 24 hours, the plants were contaminated by spraying the leaves with an aqueous suspension of Alternaria brassicae spores. The contaminated radish or cabbage plants were incubated for 3 to 4 days at 20° C. and at 100% relative humidity.

[4] = test system: Alternaria alternata; assay: Alternaria alternata in vitro cell test; assay type: cell-based; settings: 120 h, 20 ppm of active ingredient, liquid culture, 5 days incubation, read-out: efficacy (inhibition of fungal growth)
Procedure: as §1, with “a-7. Alternaria alternata” for “a-12. Pyrenophora teres”, “A. alternata” for “P. teres”, “5” for “6”

[5] = test system: Fusarium culmorum; assay: Fusarium culmorum in vitro cell test; assay type: cell-based; settings: 96 h, 20 ppm of active ingredient, liquid culture, 4 days incubation, read-out: efficacy (inhibition of fungal growth)
Procedure: a-8. Fusarium culmorum In Vitro Cell Test
Fungicides were solubilized in DMSO and the solution used to prepare the required range of concentrations. The final concentration of DMSO used in the assay was ≤1%.
A spore suspension of F. culmorum was prepared and diluted to the desired spore density.
Fungicides were evaluated for their ability to inhibit spore germination and mycelium growth in liquid culture assay. The compounds were added in the desired concentration to the culture medium with spores. After 4 days incubation, fungi-toxicity of compounds was determined by spectrometric measurement of mycelium growth. Inhibition of fungal growth was determined by comparing the absorbance values in wells containing the fungicides with the absorbance in control wells without fungicides.

[6] = test system: Pyricularia Oryzae; assay: microbe, parasite or virus in culture; assay type: cell-based; settings: 120 h, read-out: efficacy (inhibition of fungal growth)
[7] = test system: Sphaerotheca fuliginea; assay: In vivo preventive test on Sphaerotheca fuliginea (powdery mildew on cucurbits); settings: 500 ppm of active ingredient; preventive spray on gherkin; evaluated 8 days after inoculation
Procedure: (§3) a-5. In Vivo Preventive Test on Sphaerotheca fuliginea (Powdery Mildew on Cucurbits) [table] The active ingredients were made soluble and homogenized in a mixture of Dimethyl sulfoxide/Acetone//Tween® 80 and then diluted in water to the desired concentration. The young plants of gherkin were treated by spraying the active ingredient prepared as described above. Control plants were treated only with an aqueous solution of Acetone/Dimethyl sulfoxide/Tween® 80. After 24 hours, the plants were contaminated by spraying the leaves with an aqueous suspension of Sphaerotheca fuliginea spores.

[8] = test system: Colletotrichum lindemuthianum; assay: In vivo preventive test on Colletotrichum lindemuthianum (leaf spot on bean); settings: 500 ppm of active ingredient; preventive spray on bean; evaluated 7 days after inoculation
Procedure: as §2, with “a-6.” for “a-1.”, “Colletotrichum lindemuthianum” for “Alternaria brassicae”, “Bean)” for “Radish or Cabbage)”, “bean” for “radish or cabbage”, “24 hours” for “3 to 4 days”, “relative humidity and then for 6 days at 20° C. and at 90% relative” for “relative”

[9] = test system: Pyrenophora teres; assay: In vivo preventive test on Pyrenophora teres (net blotch on barley); settings: 500 ppm of active ingredient; preventive spray on barley; evaluated 10 days after inoculation
Procedure: as §3, with “a-3.” for “a-5.”, “Pyrenophora teres (Net Blotch” for “Sphaerotheca fuliginea (Powdery Mildew”, “Barley)” for “Cucurbits)”, “barley” for “gherkin”, “Pyrenophora teres” for “Sphaerotheca fuliginea”

[10] = test system: Fusarium virguliforme; assay: Fusarium virguliforme in vitro cell test; assay type: cell-based; settings: 144 h, 20 ppm of active ingredient, liquid culture, 6 days incubation, read-out: efficacy (inhibition of fungal growth)
Procedure: as §1, with “a-13. Fusarium virguliforme” for “a-12. Pyrenophora teres”, “F. virguliforme” for “P. teres”

[11] = test system: Ustilago avenae; assay: Ustilago avenae in vitro cell test; assay type: cell-based; settings: 96 h, 20 ppm of active ingredient, liquid culture, 4 days of incubation, read-out: efficacy (inhibition of fungal growth)
Procedure: a-10. Ustilago avenae In Vitro Cell Test [table] Fungicides were solubilized in DMSO and the solution used to prepare the required range of concentrations. The final concentration of DMSO used in the assay was ≤1%. Inoculum was prepared from a pre-culture of U. avenae grown in liquid medium and diluted to the desired optical density (OD). Fungicides were evaluated for their ability to inhibit mycelium growth in liquid culture assay. The compounds were added in the desired concentrations to culture medium containing the spore suspension. After 4 days of incubation, the fungicidal efficacy of compounds was determined by spectrometric measurement of mycelium growth. Inhibition of fungal growth was determined by comparing the absorbance values in wells containing the fungicides with the absorbance in control wells without fungicides.

[12] = test system: Septoria tritici; assay: Septoria tritici in vitro cell test; assay type: cell-based; settings: Zymoseptoria tritici, 168 h; 20 ppm of active ingredient; liquid culture; 7 days incubation; read-out: efficacy (inhibition of fungal growth)
Procedure: as §1, with “a-15. Septoria tritici” for “a-12. Pyrenophora teres”, “S. tritici” for “P. teres”, “After 6 days incubation, fungi-toxicity of compounds was determined by spectrometric measurement of mycelium growth.” left out

[13] = test system: Botrytis cinerea; assay: In vivo preventive test on Botrytis cinerea (grey mould); settings: 500 ppm of active ingredient; preventive spray on gherkin or cabbage; evaluated 4 to 5 days after inoculation
Procedure: a-2. In Vivo Preventive Test on Botrytis cinerea (Grey Mould) [table] The active ingredients were made soluble and homogenized in a mixture of Dimethyl sulfoxide/Acetone//Tween® 80 and then diluted in water to the desired concentration. The young plants of gherkin or cabbage were treated by spraying the active ingredient prepared as described above. Control plants were treated only with an aqueous solution of Acetone/Dimethyl sulfoxide/Tween® 80. After 24 hours, the plants were contaminated by spraying the leaves with an aqueous suspension of Botrytis cinerea spores. The contaminated gherkin plants were incubated for 4 to 5 days at 17° C. and at 90% relative humidity. The contaminated cabbage plants were incubated for 4 to 5 days at 20° C. and at 100% relative humidity.

[14] = test system: Colletotrichum lindemuthianum; assay: Colletotrichum lindemuthianum in vitro cell test; assay type: cell-based; settings: 144 h, 20 ppm of active ingredient, liquid culture, 6 days incubation, read-out: efficacy (inhibition of fungal growth)
Procedure: as §1, with “a-11. Colletotrichum lindemuthianum In” for “a-12. Pyrenophora teres In”, “of C. lindemuthianum” for “of P. teres”, “inhibit spores” for “inhibit spore”

[15] = test system: Septoria tritici; assay: In vivo preventive test on Septoria tritici (leaf spot on wheat); settings: 500 ppm of active ingredient; preventive spray on wheat; evaluated 17 to 19 days after inoculation
Procedure: a-4. In Vivo Preventive Test on Septoria tritici (Leaf Spot on Wheat) [table] The active ingredients were made soluble and homogenized in a mixture of Dimethyl sulfoxide/Acetone//Tween® 80 and then diluted in water to the desired concentration. The young plants of wheat were treated by spraying the active ingredient prepared as described above. Control plants were treated only with an aqueous solution of Acetone/Dimethyl sulfoxide/Tween® 80. After 24 hours, the plants were contaminated by spraying the leaves with an aqueous suspension of Septoria tritici spores. The contaminated wheat plants were incubated for 72 hours at 17° C. and at 100% relative humidity and then for 14 to 16 days at 20° C. and at 90% relative humidity.

[16] = test system: Botrytis cinerea; assay: Botrytis cinerea in vitro cell test; assay type: cell-based; settings: 144 h, 20 ppm of active ingredient, liquid culture, 6 days incubation, read-out: efficacy (inhibition of fungal growth)
Procedure: as §1, with “a-14. Botrytis cinerea” for “a-12. Pyrenophora teres”, “B. cinerea” for “P. teres”

Cc1ccc(C[C@H]2CON=C(c3cc(C)nnc3Oc3cccc(Cl)c3F)N2)c(Cl)c1 [compound (I), (5S)-3-[3-(3-chloro-2-fluorophenoxy)-6-methylpyridazin-4-yl]-5-(2-chloro-4-methylbenzyl)-5,6-dihydro-4H-1,2,4-oxadiazine]
at least 70%: efficacy [1] | efficacy [3] | efficacy [7] | efficacy [8] | efficacy [9] | efficacy [13] | efficacy [15]
≥ 70%: inhibition at 20 ppm [2] | inhibition at 20 ppm [4] | inhibition at 20 ppm [5] | inhibition at 20 ppm [6] | inhibition at 20 ppm [10] | inhibition at 20 ppm [11] | inhibition at 20 ppm [12] | inhibition at 20 ppm [14] | inhibition at 20 ppm [16]
